According to PMC10092101 (Chemmedchem, 2022):
One block for each molecule: values may come before it.

What was measured:
CMKLR1 [1] = settings: ref [13], [22]; cited from earlier work
GPR1 = settings: ref [13], [22]; cited from earlier work
CCRL2 = settings: cited from earlier work
Nluc‐CMKLR1‐eYFP = target: T1, Nluc‐CMKLR1‐eYFP (human, UniProt Q99788-2 1-371); assay: FRET or BRET
T1 sequence: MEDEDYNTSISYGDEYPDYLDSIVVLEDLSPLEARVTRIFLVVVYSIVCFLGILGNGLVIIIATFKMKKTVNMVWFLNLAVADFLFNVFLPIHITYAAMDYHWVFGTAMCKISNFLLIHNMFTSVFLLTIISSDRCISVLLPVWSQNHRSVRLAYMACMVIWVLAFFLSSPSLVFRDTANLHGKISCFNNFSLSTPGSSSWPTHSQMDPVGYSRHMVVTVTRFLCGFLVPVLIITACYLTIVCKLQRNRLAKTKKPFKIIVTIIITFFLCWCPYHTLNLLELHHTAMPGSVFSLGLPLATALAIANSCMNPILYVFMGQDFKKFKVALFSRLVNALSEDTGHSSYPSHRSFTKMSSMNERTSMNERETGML

Nluc‐GPR1‐eYFP = target: T2, Nluc‐GPR1‐eYFP (human, UniProt P46091 1-355); assay: FRET or BRET
T2 sequence: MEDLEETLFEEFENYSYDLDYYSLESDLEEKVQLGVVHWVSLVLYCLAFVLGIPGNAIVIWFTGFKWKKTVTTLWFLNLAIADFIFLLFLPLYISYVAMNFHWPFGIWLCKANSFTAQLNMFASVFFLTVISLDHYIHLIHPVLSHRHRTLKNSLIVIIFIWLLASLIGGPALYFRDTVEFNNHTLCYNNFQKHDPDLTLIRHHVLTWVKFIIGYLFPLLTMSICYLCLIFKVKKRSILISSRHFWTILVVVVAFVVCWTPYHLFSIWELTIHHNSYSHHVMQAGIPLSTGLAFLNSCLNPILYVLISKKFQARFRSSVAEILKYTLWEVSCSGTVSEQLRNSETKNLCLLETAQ

CMKLR1 [2] = target: T3, CMKLR1 (Homo sapiens, UniProt Q99788); assay: IP-One assay; assay type: cell-based; settings: [K^141(TAMRA)]ChemS157 vs ChemS157, COS-7 cells
T3 sequence (Q99788 1-371 isoform Q99788-2): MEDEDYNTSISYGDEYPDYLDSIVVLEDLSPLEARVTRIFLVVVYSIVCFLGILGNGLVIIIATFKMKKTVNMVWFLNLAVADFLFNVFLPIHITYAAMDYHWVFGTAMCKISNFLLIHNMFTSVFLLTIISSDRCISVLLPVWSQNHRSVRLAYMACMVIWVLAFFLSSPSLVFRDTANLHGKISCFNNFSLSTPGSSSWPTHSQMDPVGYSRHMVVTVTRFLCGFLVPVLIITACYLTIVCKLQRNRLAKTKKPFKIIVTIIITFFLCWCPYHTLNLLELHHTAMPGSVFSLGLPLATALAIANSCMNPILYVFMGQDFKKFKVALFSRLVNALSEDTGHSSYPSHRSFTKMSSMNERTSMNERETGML

Nluc‐GPR1 = target: T4, Nluc‐GPR1 (Homo sapiens, UniProt P46091); assay: NanoBRET saturation binding at Nluc-GPR1; settings: Nluc-GPR1 vs Nluc-CMKLR1
T4 sequence (P46091 1-355): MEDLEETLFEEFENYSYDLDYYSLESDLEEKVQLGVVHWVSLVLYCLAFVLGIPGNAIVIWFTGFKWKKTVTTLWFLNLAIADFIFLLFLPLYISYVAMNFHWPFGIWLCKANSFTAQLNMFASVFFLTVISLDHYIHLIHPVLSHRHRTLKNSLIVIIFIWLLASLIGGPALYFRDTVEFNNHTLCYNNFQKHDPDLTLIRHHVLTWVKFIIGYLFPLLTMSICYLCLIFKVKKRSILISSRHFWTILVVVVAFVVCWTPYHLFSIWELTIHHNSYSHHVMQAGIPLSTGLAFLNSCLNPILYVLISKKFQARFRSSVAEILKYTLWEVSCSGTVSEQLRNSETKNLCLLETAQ

Molecule: ChemS157: most active chemerin form truncated at position S157, 137 amino acids; full‐length protein by recombinant expression
binding affinity (CMKLR1 [1]): high affinity
binding affinity (GPR1): high affinity
binding affinity (CCRL2; ref [13], [22]): high affinity

Molecule: chemerin: 16 kDa protein expressed in liver, skin, lung or white adipose tissue; adipokine
cellular response at CCRL2 (CCRL2; described to bind chemerin, no reference printed directly): leads to no cellular response

EC50 (Nluc‐CMKLR1‐eYFP): 75.9 nM
EC50 (Nluc‐GPR1‐eYFP): 112 nM
B1: [K^141(TAMRA)]ChemS157 (ligand)
chain: ELTEAQRRGLQVALEEFHKHPPVQWAFQETSVESAVDTPFPAGIFVRLEFKLQQTSCRKRDWKKPECKVRPNGRKRKCLACIKLGSEDKVLGRLVHCPIETQVLREAEEHQETQCLRVQRKGEDPHSFYFPGQFAFS
modifications: TAMRA on the side chain of lysine 141

EC50 fold higher than ChemS157 without the TAMRA label (CMKLR1 [2]): 2.5 fold
shift of EC50 between Nluc-CMKLR1 and Nluc-GPR1 (Nluc‐GPR1): 1.5 fold
B2: [K^141(TAMRA)]ChemS157: TAMRA‐labeled full-length ChemS157, lysine 141 labeled, semi‐synthetic by native chemical ligation (protein)
chain: ELTEAQRRGLQVALEEFHKHPPVQWAFQETSVESAVDTPFPAGIFVRLEFKLQQTSCRKRDWKKPECKVRPNGRKRKCLACIKLGSEDKVLGRLVHCPIETQVLREAEEHQETQCLRVQRKGEDPHSFYFPGQFAFS
modifications: TAMRA on the side chain of lysine 141; left off: [His]10-[…], N-terminal, kept
